One test deals with T1, CDK2 (Homo sapiens, UniProt P24941).
T1 construct: purchased Upstate Biotech, Lake Placid, N.Y
Briefly: CDK-2 screening assay. The test is classed as biochemical. As to the method: (§1) 70 μL of the kinase reaction mixture was dispensed into the well of a streptavidin coated FlashPlate™ (Cat. #SMP103, NEN, Boston, Mass.).
(§2) Test compound stock in 100% DMSO (1 μL) was added to the wells resulting in a final concentration of 1% DMSO in the reaction with a 100 μL final reaction volume. Each enzyme was diluted in 50 mM Tris-HCl pH=8.0, 0.1% BSA and 30 μL was added to each well to initiate the reaction. The reaction was incubated for one hour at 30° C. At the end of the 1 hr incubation, the reaction was terminated by aspirating the mixture from the plate and washing the wells twice with PBS containing 100 mM EDTA. The biotinylated peptide substrate became immobilized on the Flashplate and the incorporation of ^33P-γ-ATP was measured by reading the plate on a scintillation counter. Inhibition of the enzymatic activity was measured by observing a reduced amount of ^33P-γ-ATP incorporated into the immobilized peptide.
The CDK2 enzyme in complex with cyclin A is commercially available (Upstate Biotech, Lake Placid, N.Y.).
(§3) A maximum and minimum signal for the assay was determined on each plate. The percent inhibition of a test compound was calculated according to the formula: […]
(§4) The term “ND” means “not determined.”

The target of another test is VEGFR2 (Rattus norvegicus, UniProt O08775). Description: VEGFR2 screening assay. The test is classed as biochemical. As to the method:
A kinase reaction mixture was prepared containing 50 mM Tris-HCl pH=8, 10 mM MgCl2, 0.1 mM […], 1 mM DTT, 10 μM ATP, 0.025 μM biotinylated histone-H1 peptide substrate and 0.2 μCuries per well ^33P-γ-ATP (2000-3000 Ci/mmol). 70 μL of the kinase reaction mixture was dispensed into the well of a streptavidin coated FlashPlate™ (Cat. #SMP103, NEN, Boston, Mass.).
as §2
The VEGF-R2 enzyme is a fusion protein containing a polyhistidine tag at the N terminus followed by amino acids 786 to 1343 of the rat VEGF-R2 kinase domain (Accession number U93306). The assay used 150 ng of the N-terminal biotinylated peptide biotin-[…]-amide SEQ ID NO: 2) (VEGF-R2) per well.
as §3
For a series of test concentrations, the IC50 was derived by graphing percent inhibition against the log of the concentrations tested for a given compound with results shown in Table 2. For those compounds without an IC50, the inhibition values in percent are shown at a test concentration of 2 μM. The term “ND” means “not determined.”

The target in another test is T2, CDK1 (Homo sapiens, UniProt P06493).
T2 construct: purchased New England Biolabs, Beverly, Mass; 6020; host or cells: insect cells
Description: CDK-1 screening assay. It is filed as biochemical. As to the method: as §1, §2, §3, §4

The test system of a further test is HCT-116 colon carcinoma. Description: Cell Proliferation Inhibition Assay (14C-thymidine incorporation), HCT-116. The test is classed as cell-based. Conditions: Homo sapiens. An excerpt:
(§5) The ability of a test compound to inhibit unregulated cell proliferation may be determined by measuring incorporation of ^14C-labelled thymidine into newly synthesized DNA within cell lines derived from carcinomas originating from several tissues. Accordingly, the anti-proliferative effect of a compound on cells with a variety of phenotypes may be determined.
(§6) Carcinoma cell lines include those such as HeLa cervical adenocarcinoma (American Type Culture Collection (ATCC), Virginia, Cat. #CCL-2), A375 malignant melanoma (ATCC CRL-1619), SK-OV-3 ovarian adenocarcinoma (ATCC HTB-77), HCT-116 colon carcinoma (CCL-247), PC-3 prostate adenocarcinoma (ATCC CRL-1435), and MDA-MB-231 (Xenogen Corp.)
(§7) The carcinoma cells are trypsinized and counted. The cells (3000-8000 count) are added to each well of a 96-well CytoStar tissue culture treated scintillating microplate (Amersham #RPNQ0160) in complete medium (100 μL) and the plate is then incubated in complete medium for 24 hrs at 37° C. in an inert atmosphere containing 5% CO2. Test compound (1 μL) in 100% DMSO is added to the plate test-wells with DMSO only added to control-wells. The plate is incubated in complete medium for a second 24 hr period at 37° C. in an atmosphere containing 5% CO2.
(§8) An aliquot of a solution of Methyl ^14C-thymidine (56 mC/mmol) (NEN #NEC568 or Amersham #CFA532) and complete medium (20 uL to provide 0.2 μCi/well) is then added to each well and the plate is incubated for a third 24 hr period at 37° C. in an atmosphere containing 5% CO2. The plate contents are then discarded, the plate is washed twice with PBS (200 μL) and then PBS (200 μL) is added to each well. The plate is sealed and the degree of methyl ^14C-thymidine incorporation is quantified on a Packard Top Count.
A general note: Dividing cells build labelled thymidine or BrdU into new DNA.

Test [1] deals with HeLa cervical adenocarcinoma. Description: Cell Proliferation Inhibition Assay (14C-thymidine incorporation), HeLa. The test is classed as cell-based. Conditions: Homo sapiens.
Excerpt: as §5, §6, §7, §8

The next test deals with A375 malignant melanoma. Description: Cell Proliferation Inhibition Assay (14C-thymidine incorporation), A375. The test is classed as cell-based. Conditions: Homo sapiens, A-375.
Excerpt: as §5, §6, §7, §8

Results on eleven molecules are retold here after patent US8314234B2, “Bicyclic pyrimidine kinase inhibitors” (Janssen Pharmaceutica N.V., priority 2006, dated 2012).

Some results are limits rather than exact numbers.

T2 sequence (P06493 whole entry): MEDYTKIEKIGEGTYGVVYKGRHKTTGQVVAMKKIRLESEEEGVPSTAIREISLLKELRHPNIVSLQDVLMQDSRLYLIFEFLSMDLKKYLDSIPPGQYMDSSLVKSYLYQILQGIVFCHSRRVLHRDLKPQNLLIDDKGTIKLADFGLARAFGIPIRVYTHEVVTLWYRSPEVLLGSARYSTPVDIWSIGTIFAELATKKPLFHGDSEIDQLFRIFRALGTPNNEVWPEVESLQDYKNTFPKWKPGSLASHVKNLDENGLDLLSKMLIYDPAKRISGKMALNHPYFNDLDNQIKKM
T2 sequence (P14635 whole entry partner): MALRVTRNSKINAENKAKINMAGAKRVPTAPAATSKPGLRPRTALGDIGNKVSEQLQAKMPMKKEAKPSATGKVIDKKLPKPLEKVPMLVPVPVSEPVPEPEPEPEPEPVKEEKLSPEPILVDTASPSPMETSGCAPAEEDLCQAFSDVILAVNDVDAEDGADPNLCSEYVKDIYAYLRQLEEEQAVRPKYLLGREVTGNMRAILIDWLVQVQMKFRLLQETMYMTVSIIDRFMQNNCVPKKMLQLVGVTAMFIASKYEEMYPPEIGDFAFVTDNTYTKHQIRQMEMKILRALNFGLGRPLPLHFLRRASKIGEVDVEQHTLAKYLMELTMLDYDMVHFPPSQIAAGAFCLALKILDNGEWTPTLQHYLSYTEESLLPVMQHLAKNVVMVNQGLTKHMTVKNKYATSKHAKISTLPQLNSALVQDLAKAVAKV
Chain of VEGFR2 (O08775 786-1343): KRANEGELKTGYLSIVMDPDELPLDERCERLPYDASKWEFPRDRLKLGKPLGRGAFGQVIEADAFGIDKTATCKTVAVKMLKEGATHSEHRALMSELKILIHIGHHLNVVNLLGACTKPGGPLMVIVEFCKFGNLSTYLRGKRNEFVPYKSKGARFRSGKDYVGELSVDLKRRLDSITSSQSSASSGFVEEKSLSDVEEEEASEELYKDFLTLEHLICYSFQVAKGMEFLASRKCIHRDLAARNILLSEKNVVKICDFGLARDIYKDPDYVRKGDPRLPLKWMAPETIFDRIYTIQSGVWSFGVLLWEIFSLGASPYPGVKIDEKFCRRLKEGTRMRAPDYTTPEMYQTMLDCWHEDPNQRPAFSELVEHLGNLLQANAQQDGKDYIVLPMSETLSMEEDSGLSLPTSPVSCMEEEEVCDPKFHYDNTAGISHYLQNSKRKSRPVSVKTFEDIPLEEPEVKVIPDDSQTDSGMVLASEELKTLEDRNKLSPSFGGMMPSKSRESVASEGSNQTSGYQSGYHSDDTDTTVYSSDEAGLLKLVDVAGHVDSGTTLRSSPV

What is called IC50 is the concentration that inhibits the measured activity by half. Consider `NS(=O)(=O)c1ccc(Nc2nc(NCc3ccccc3)c3cn[nH]c3n2)cc1` [Cpd 2, 4-(4-benzylamino-1H-pyrazolo[3,4-d]pyrimidin-6-ylamino)-benzenesulfonamide], for which the IC50 was 1.6 µM against CDK2, 20 µM against VEGFR2 and 7.16 µM on CDK1.

Turning to `NS(=O)(=O)c1ccc(Nc2nc(Nc3ccc(S(N)(=O)=O)cc3)c3cn[nH]c3n2)cc1` [Cpd 1, N^4,N^6-bis-[4-(amino-sulfonyl)-phenyl]-1H-pyrazolo[3,4-d]pyrimidine-4,6-diamine], the IC50 is 0.021 µM on CDK2; 5 µM against VEGFR2; 0.132 µM against CDK1; 4.9 µM in the test with HCT-116 colon carcinoma; 100 µM in test [1]; 100 µM in the test on A375 malignant melanoma.

For `CC(C)C(CO)Nc1nc(Nc2ccc(S(=O)(=O)NCCO)cc2)nc2[nH]ncc12` (centres unmarked) [Cpd 14, N-(2-hydroxy-ethyl)-4-[4-(1-hydroxymethyl-2-methyl-propylamino)-1H-pyrazolo[3,4-d]pyrimidin-6-ylamino]-benzenesulfonamide], the IC50 is 3.29 µM on CDK2; 75 µM on VEGFR2; 12 µM on CDK1; 15 µM in the test on HCT-116 colon carcinoma; 100 µM in test [1]; 100 µM with A375 malignant melanoma.

Turning to `NS(=O)(=O)c1ccc(Nc2nc(OCC3CCCCC3)c3cn[nH]c3n2)cc1` [Cpd 23, 4-(4-cyclohexylmethoxy-1H-pyrazolo[3,4-d]pyrimidin-6-ylamino)-benzenesulfonamide], the IC50 against VEGFR2 is over 10 µM; in the test on HCT-116 colon carcinoma, 16.6 µM; in test [1], 18.3 µM; in the test with A375 malignant melanoma, 11 µM.

For `O=S(=O)(NCCN1CCOCC1)c1ccc(Nc2nc(OCC3CCCCC3)c3cn[nH]c3n2)cc1` [Cpd 27, 4-(4-cyclohexylmethoxy-1H-pyrazolo[3,4-d]pyrimidin-6-ylamino)-N-(2-morpholin-4-yl-ethyl)-benzenesulfonamide], the 50% inhibitory concentration (IC50) is 4.47 µM against VEGFR2; 0.83 µM at CDK1; 11.2 µM in the test on HCT-116 colon carcinoma; 19.4 µM in test [1]; 7.5 µM with A375 malignant melanoma.

Regarding `O=S(=O)(NCCO)c1ccc(Nc2nc(OCC3CCCCC3)c3cn[nH]c3n2)cc1` [Cpd 26, 4-(4-cyclohexylmethoxy-1H-pyrazolo[3,4-d]pyrimidin-6-ylamino)-N-(2-hydroxy-ethyl)-benzenesulfonamide], the half-maximal inhibitory concentration (IC50) was 2.32 µM against VEGFR2; 0.268 µM on CDK1; 5 µM in the test with HCT-116 colon carcinoma; 4.6 µM in test [1]; 8.6 µM in the test with A375 malignant melanoma.

Turning to `c1ccc(Nc2nc(OCC3CCCCC3)c3cn[nH]c3n2)cc1` [Cpd 25, (4-cyclohexylmethoxy-1H-pyrazolo[3,4-d]pyrimidin-6-yl)-phenyl-amine], the 50% inhibitory concentration (IC50) is over 10 µM against CDK2, over 10 µM against VEGFR2 and over 100 µM against CDK1.

For the molecule `O=S(=O)(NCCO)c1ccc(Nc2nc(Nc3ccc4[nH]ncc4c3)c3cnoc3n2)cc1` [Cpd 15, N-(2-hydroxy-ethyl)-4-[4-(1H-indazol-5-ylamino)-isoxazolo[5,4-d]pyrimidin-6-ylamino]-benzenesulfonamide], the IC50 at CDK2 is 0.18 µM; against VEGFR2, 1 µM; at CDK1 it was 1 µM; in the test on HCT-116 colon carcinoma it was 15 µM; in test [1] it was 100 µM; with A375 malignant melanoma, 100 µM.

Consider `c1nc2ccc(Nc3nc(Nc4ccc5ncsc5c4)c4cn[nH]c4n3)cc2s1` [Cpd 16, N^4,N^6-bis-benzothiazol-6-yl-1H-pyrazolo[3,4-d]pyrimidine-4,6-diamine], for which the IC50 against CDK2 was 1 µM; against VEGFR2, 0.989 µM; at CDK1, 5 µM; in the test on HCT-116 colon carcinoma, 8.6 µM; in test [1], 13.3 µM; in the test with A375 malignant melanoma it was 8.2 µM.

Take `c1cc(N2CCNCC2)ccc1Nc1nc(OCC2CCCCC2)c2cn[nH]c2n1` [Cpd 24, (4-cyclohexylmethoxy-1H-pyrazolo[3,4-d]pyrimidin-6-yl)-(4-piperazin-1-yl-phenyl)-amine]: the half-maximal inhibitory concentration (IC50) against CDK2, against VEGFR2 and against CDK1 was over 100 µM each time.

For `O=S(=O)(NCCO)c1ccc(Nc2nc(Nc3ccc4[nH]ncc4c3)c3cn[nH]c3n2)cc1` [Cpd 11, N-(2-hydroxy-ethyl)-4-[4-(1H-indazol-5-ylamino)-1H-pyrazolo[3,4-d]pyrimidin-6-ylamino]-benzenesulfonamide], the half-maximal inhibitory concentration (IC50) came to 0.139 µM against CDK2; 1 µM against VEGFR2; 0.102 µM at CDK1; 100 µM in the test on HCT-116 colon carcinoma; 100 µM in test [1]; 100 µM in the test with A375 malignant melanoma.
